Article PMC9919579 (Molecules, 2023)

target: T1, vaccinia virus TOP1 (vaccinia DNA Topoisomerase I) (Vaccinia virus WR, UniProt P68698); experiment: biochemical; format: binding
T1 construct: gene OPG111; TOP1 described as 314 amino acids; amine-coupled to GLH chip

In order of falling Kd:
1. CC1COc2c(N3CCN(C)CC3)c(F)cc3c(=O)c(C(=O)O)cn1c23 (stereo not shown) [Ofloxacin]  5.46 µM
2. C[C@@H]1O[C@@H](Oc2c(-c3ccc(O)c(O)c3)oc3cc(O)cc(O)c3c2=O)[C@H](O)[C@H](O)[C@H]1O [Quercitrin]  4.77 µM
3. C[C@@H]1O[C@@H](Oc2c(-c3cc(O)c(O)c(O)c3)oc3cc(O)cc(O)c3c2=O)[C@H](O)[C@H](O)[C@H]1O [Myricitrin]  3.54 µM
4. O=C(/C=C/c1ccc(O)c(O)c1)O[C@H](Cc1ccc(O)c(O)c1)C(=O)O [Rosmarinic acid]  2.16 µM
